{"source": "patent US20150258118A1", "about": "“CO-MICRONISATION PRODUCT COMPRISING A SELECTIVE PROGESTERONE-RECEPTOR MODULATOR” (LABORATOIRE HRA-PHARMA, priority 2012, published 2015)", "key": {"[1]": {"assay": "In vitro dissolution of UPA comicronizates (gelatin capsules, paddle device, Eur. Pharmacopoeia §2.9.3)", "type": "physicochemical", "details": "30 mg UPA capsule, 900 ml gastric pH buffer, 0.1% SDS, 37°C, 50 rpm, mean of 3", "method": "The co-micronization product has improved active ingredient in vitro dissolution properties. In certain embodiments, the co-micronization product according to the invention is characterized in that at least 55% of the active ingredient that it contains is released within 45 minutes when said co-micronization product is subjected to an in vitro dissolution test, preferably according to the European Pharmacopoeia §2.9.3. The in vitro dissolution test can be carried out using any commercially available device. Example 1 hereinafter presents implementing conditions for determining the in vitro dissolution rate of a comicronizate according to the invention. Briefly, an amount of comicronizate representing 30 mg of active ingredient is placed in a gelatin capsule. This capsule is then placed in 900 ml of a medium buffered at gastric pH, comprising 0.1% of SDS, at 37±0.5° C., and subjected to stirring at 50 revolutions per minute (rpm) (speed of rotation of the paddles of the dissolution device). The dissolution of the active ingredient in the medium can be monitored by spectrophotometry, for example at the maximum wavelength of absorbance. For the purposes of the invention, a gastric pH is typically a pH of 1 to 3.\nFor each comicronizate obtained, gelatin capsules containing an amount of comicronizate corresponding to 30 mg of UPA per capsule were prepared. The studies of the in vitro dissolution of UPA as comicronizate were carried out using these capsules according to the method described in the European Pharmacopoeia in §2.9.3, using a paddle dissolution device.\nFor each comicronizate, a capsule containing said comicronizate was placed in a bowl of the dissolution device containing 900 ml of a dissolution medium. The dissolution medium is an aqueous solution buffered at gastric pH and comprising 0.1% of SDS. The conditions for carrying out the in vitro dissolutions are the following: • Paddle rotation speed: 50 revolutions per minute (rpm) • Temperature: 37° C.±0.5° C.\nThe dissolution of the UPA was monitored by spectrophotometry.\nBy way of control experiment, a gelatin capsule containing 30 mg of ulipristal acetate micronized alone (i.e. UPA micronized in the absence of any co-micronization excipient) was used. For each comicronizate, the dissolution experiment was reproduced 3 times.\nThese various active ingredient matrices were subjected to an in vitro dissolution test as described above in the “Materials and Methods” section."}, "[2]": {"assay": "UPA solubility as a function of pH", "type": "physicochemical"}, "[3]": {"details": "single dose of 30 mg, within 120 hours following unprotected or poorly protected intercourse; cited from earlier work"}, "[4]": {"details": "chronic administration, 5 mg or 10 mg per day; cited from earlier work"}}}
{"smiles": "CC(=O)O[C@]1(C(C)=O)CCC2C3CCC4=CC(=O)CCC4=C3[C@@H](c3ccc(N(C)C)cc3)C[C@@]21C", "note": "(stereo partly drawn) [UPA, 17α-acetoxy-11β-(4-N,N-dimethylaminophenyl)-19-norpregna-4,9-diene-3,20-dione]", "values": [{"measurement": "Percentage of UPA released relative to the initial amount of UPA per gel capsule", "setting": "[1]; time 0 min", "value": 0.00, "unit": "%"}, {"measurement": "Percentage of UPA released relative to the initial amount of UPA per gel capsule", "setting": "[1]; time 1 min", "value": 0.00, "unit": "%"}, {"measurement": "Percentage of UPA released relative to the initial amount of UPA per gel capsule", "setting": "[1]; time 5 min", "value": 5.50, "unit": "%"}, {"measurement": "Percentage of UPA released relative to the initial amount of UPA per gel capsule", "setting": "[1]; time 7.5 min", "value": 15.00, "unit": "%"}, {"measurement": "Percentage of UPA released relative to the initial amount of UPA per gel capsule", "setting": "[1]; time 10 min", "value": 22.30, "unit": "%"}, {"measurement": "Percentage of UPA released relative to the initial amount of UPA per gel capsule", "setting": "[1]; time 15 min", "value": 30.00, "unit": "%"}, {"measurement": "Percentage of UPA released relative to the initial amount of UPA per gel capsule", "setting": "[1]; time 20 min", "value": 34.30, "unit": "%"}, {"measurement": "Percentage of UPA released relative to the initial amount of UPA per gel capsule", "setting": "[1]; time 30 min, listed as Micronized UPA", "value": 39.50, "unit": "%"}, {"measurement": "Percentage of UPA released relative to the initial amount of UPA per gel capsule", "setting": "[1]; time 30 min, listed as micronized ulipristal acetate", "value": "approximately 39%"}, {"measurement": "Percentage of UPA released relative to the initial amount of UPA per gel capsule", "setting": "[1]; time 45 min", "value": 47.50, "unit": "%"}, {"measurement": "Percentage of UPA released relative to the initial amount of UPA per gel capsule", "setting": "[1]; time 60 min", "value": 53.80, "unit": "%"}, {"measurement": "solubility", "setting": "[2]; pH 1.2, simulated gastric fluid", "value": 22700, "unit": "µg/mL"}, {"measurement": "solubility", "setting": "[2]; pH 4.5, aqueous buffer", "value": 39, "unit": "µg/mL"}, {"measurement": "solubility", "setting": "[2]; pH 6.8, aqueous buffer", "value": 5, "unit": "µg/mL"}, {"measurement": "Prevention of unwanted pregnancy", "setting": "[3]", "value": "makes it possible to prevent an unwanted pregnancy"}, {"measurement": "Symptoms associated with uterine fibromas", "setting": "[4]", "value": "significantly reduce the symptoms associated with uterine fibromas"}]}
